Columns and labels:
Test in all cases: relative viability (nuclei count vs DMSO), 5 days (fraction); higher = more cells survive
Alisertib + Bortezomib = compound: COc1cc(Nc2ncc3c(n2)-c2ccc(Cl)cc2C(c2c(F)cccc2OC)=NC3)ccc1C(=O)O [Alisertib] + CC(C)C[C@H](NC(=O)[C@H](Cc1ccccc1)NC(=O)c1cnccn1)B(O)O [Bortezomib] (partner 0.002 µM)
How it was run: (§1)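 Relative viability was taken as the ratio of nuclei in treated wells to nuclei in vehicle wells. Lung cancer cell lines in 1536-well plates received compounds by pin tool one day after seeding, either one drug alone or a fixed anchor-drug dose plus five library-drug doses (not always all listed) in √10 steps. Nuclei were counted on 4× images after 5 days of treatment, and values are medians of duplicate plates.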

Alisertib + Dasatinib = compound: COc1cc(Nc2ncc3c(n2)-c2ccc(Cl)cc2C(c2c(F)cccc2OC)=NC3)ccc1C(=O)O [Alisertib] + Cc1nc(Nc2ncc(C(=O)Nc3c(C)cccc3Cl)s2)cc(N2CCN(CCO)CC2)n1 [Dasatinib] (partner 0.075 µM)
How it was run: as §1

Alisertib + Luminespib = compound: COc1cc(Nc2ncc3c(n2)-c2ccc(Cl)cc2C(c2c(F)cccc2OC)=NC3)ccc1C(=O)O [Alisertib] + CCNC(=O)c1noc(-c2cc(C(C)C)c(O)cc2O)c1-c1ccc(CN2CCOCC2)cc1 [Luminespib] (partner 0.01 µM)
How it was run: as §1

Alisertib + Palbociclib = compound: COc1cc(Nc2ncc3c(n2)-c2ccc(Cl)cc2C(c2c(F)cccc2OC)=NC3)ccc1C(=O)O [Alisertib] + CC(=O)c1c(C)c2cnc(Nc3ccc(N4CCNCC4)cn3)nc2n(C2CCCC2)c1=O [Palbociclib] (partner 0.5 µM)
How it was run: as §1

Cell Line | relative viability (Alisertib + Bortezomib; first compound 0.005 µM) | relative viability (Alisertib + Bortezomib; first compound 0.01581 µM) | relative viability (Alisertib + Bortezomib; first compound 0.05 µM) | relative viability (Alisertib + Bortezomib; first compound 0.1581 µM) | relative viability (Alisertib + Bortezomib; first compound 0.5 µM) | relative viability (Alisertib + Dasatinib; first compound 0.005 µM) | relative viability (Alisertib + Dasatinib; first compound 0.01581 µM) | relative viability (Alisertib + Dasatinib; first compound 0.05 µM) | relative viability (Alisertib + Dasatinib; first compound 0.1581 µM) | relative viability (Alisertib + Dasatinib; first compound 0.5 µM) | relative viability (Alisertib + Luminespib; first compound 0.005 µM) | relative viability (Alisertib + Luminespib; first compound 0.01581 µM) | relative viability (Alisertib + Luminespib; first compound 0.05 µM) | relative viability (Alisertib + Luminespib; first compound 0.1581 µM) | relative viability (Alisertib + Luminespib; first compound 0.5 µM) | relative viability (Alisertib + Palbociclib; first compound 0.005 µM) | relative viability (Alisertib + Palbociclib; first compound 0.01581 µM) | relative viability (Alisertib + Palbociclib; first compound 0.05 µM) | relative viability (Alisertib + Palbociclib; first compound 0.1581 µM) | relative viability (Alisertib + Palbociclib; first compound 0.5 µM)
HARA | 1.06 | 1.11 | 0.651 | 0.191 | 0.108 | 0.265 | 0.283 | 0.279 | 0.125 | 0.0962 | 0.682 | 0.428 | 0.209 | 0.0919 | 0.0942 | 0.288 | 0.242 | 0.243 | 0.161 | 0.147
NCI-H2126 | 1.03 | 1.08 | 0.993 | 0.526 | 0.351 | 0.55 | 0.553 | 0.48 | 0.231 | 0.215 | 0.785 | 0.834 | 0.601 | 0.274 | 0.285 | 0.314 | 0.378 | 0.346 | 0.304 | 0.269
LXF-289 | 0.823 | 0.608 | 0.323 | 0.108 | 0.128 | 0.206 | 0.256 | 0.0522 | 0.0513 | 0.0398 | 0.455 | 0.325 | 0.16 | 0.0792 | 0.142 | 0.571 | 0.527 | 0.267 | 0.204 | 0.181
NCI-H460 | 1.07 | 0.9 | 0.428 | 0.0287 | 0.0157 | 0.455 | 0.485 | 0.198 | 0.036 | 0.0218 | 0.0403 | 0.0274 | 0.0247 | 0.0194 | 0.0287 | 0.143 | 0.13 | 0.123 | 0.0185 | 0.0401
NCI-H2009 | 0.952 | 0.91 | 0.392 | 0.208 | 0.167 | 0.259 | 0.292 | 0.211 | 0.141 | 0.129 | 0.971 | 0.972 | 0.395 | 0.292 | 0.264 | 0.171 | 0.199 | 0.117 | 0.124 | 0.123

Source: the supplement of paper PMC10307832
